Experimental data published in PMC6598159 (ACS Central Science, 2019).

Experiment: CYP reaction phenotyping in HLM with selective CYP inhibitors
Conditions: ketoconazole 1 or 10 μM; ticlopidine 20 μM; mitragynine 2 μM

CC(=O)N1CCN(c2ccc(OCC3COC(Cn4ccnc4)(c4ccc(Cl)cc4Cl)O3)cc2)CC1 (centres unmarked) [ketoconazole]
effect on decomposition of mitragynine in HLM: robustly inhibited | effect on formation of 7-OH from mitragynine in HLM: robustly inhibited
